Data from publication PMC11111408, “Concurrent inhibition of oncogenic and wild-type RAS-GTP for cancer therapy” (Nature, 2024).
Values joined by “and” are separate entries in the source; they are usually repeats but may differ in a detail not shown here. Equal entries are not always repeated.

Columns and labels:
Capan-1 cells [1] = assay: Cell proliferation (CTG); format: cell-based; settings: Homo sapiens; Capan-1, CTG; (95% CI)
Experimental: (§1) Alternatively, cells were seeded in round-bottom ultra-low attachment 96-well plates, centrifuged at 1,000 rpm for 10 min to pellet the cells, and incubated overnight or up to 72 h to allow for 3D spheroid formation. […] Cell viability was determined by CellTiter-Glo 2.0 reagent (2D CTG) (Promega, G9243) or 3D CellTiter-Glo reagent (3D CTG) (Promega, G9683) according to the manufacturer’s protocols. Luminescence was detected using a SpectraMax M5 Plate Reader (Molecular Devices) of Perkin Elmer Enspire. Luminescence signal was normalized to vehicle-treated wells (normalized signal (%) = (luminescence (treated)/mean luminescence (vehicle)) × 100%). […] Data were plotted as log [inhibitor (M)], and a four-parameter sigmoidal concentration response model was fitted to the data to calculate EC50. […] Pa16C MEK1 mutant cells were evaluated by live-cell counting using Calcein AM and a SpectraMax i3X multi-mode detection platform (Molecular Devices). Growth percentages were calculated by normalizing the treated cell counts to their respective untreated cell counts.

NRAS^Q61R = NRAS^Q61R (Homo sapiens, UniProt P01111+P62937, Q61R); assay: RAS binding affinity of compound-bound CYPA (Kd2), SPR; settings: steady state SPR, (95% CI)
KRAS^G12V = KRAS^G12V (Homo sapiens, UniProt P01116+P62937, G12V); assay: as above; parameters: His6-TEV (N); made in house; host or cells: BL21(DE3) Escherichia coli; settings: steady state, (95% CI)
Capan-1 cells [2] = assay: Cellular ERK phosphorylation (pERK); format: cell-based; settings: Homo sapiens; Capan-1 (KRAS^G12V PDAC); (95% CI)
KRAS^G13D [3] = target: T1, KRAS^G13D (Homo sapiens, UniProt P01116+P62937, G13D); assay: Cellular RAS–CYPA binding (tri-complex formation), nano-BRET in U2OS cells; format: cell-based; settings: (95% CI)
From the text: (§2) KRAS4B, or other small GTPases, containing the indicated mutations were cloned in pNLF-N or pHTN plasmids for expression with an N-terminal nanoluciferase or HaloTag fusion, respectively. […] The following day, the cells were collected by Trypsin and reseeded in a white tissue culture-treated 96-well plate in OptiMem phenol red-free medium (Gibco) containing 4% FBS and a 1:1,000 dilution of NanoBRET 618 HaloTag ligand (Promega). For endpoint concentration response curves, vivazine nanoluciferase substrate was added to 1× concentration in OptiMem phenol red-free medium with 4% FBS. Varying concentrations of inhibitor were added and incubated for 1 or 4 h before the nano-BRET signal was measured on a Perkin Elmer Envision plate reader. For kinetic assays, endurazine nanoluciferase substrate was used in place of vivazine, and the plate was placed in a Cytation5 multi-mode reader pre-equilibrated to 37 °C and 5% CO2.

[4] = test system: Capan-1, SW620, AsPC-1, HPAC, NCI-H358, PSN1, HUPT3, HCT 116, Hs 766T, SK-MEL-30, KU1919, NCI-H1975, A375; assay: Proliferation (CTG) in human cancer cell lines; format: cell-based
Experimental: Data points show biological duplicates normalized to vehicle control. […] Data points show biological duplicates normalized to vehicle control from 1 of 2–26 independent experiments. Source Data
as §1

[5] = test system: KRAS^G12D PDAC cell lines; assay: Western blot time course of RAS signalling in KRAS^G12D PDAC cell lines; format: cell-based, human; settings: KRAS^G12D PDAC cells in culture, 2 h to 48 h
Experimental: Total ERK and vinculin were used as loading controls. […] Source Data
Cells were lysed with MSD Tris Lysis Buffer (MSD, R60TX-2) or a buffer of 1% Triton X-100, 20 mM Tris-HCl, 150 mM NaCl, and 1 mM EDTA, both supplemented with protease and phosphatase inhibitors. Lysates were cleared by centrifugation and quantified by BCA assay (Pierce, 23225). […] Image Studio Lite (Version 5.2.5) and Image Lab (Version 6.1.0 build 7) software were used for data analysis.

KRAS^G13D [6] = target: T1, KRAS^G13D; assay: Cellular RAS–RAF (CRAF RBD) disruption, nano-BRET in U2OS cells; format: cell-based; settings: (95% CI)
From the text: as §2

NRAS WT = NRAS WT (Homo sapiens, UniProt P01111+P62937); assay: RAS binding affinity of compound-bound CYPA (Kd2), SPR; settings: steady state SPR, (95% CI)
[7] = Mouse blood and tumour pharmacokinetics in NCI-H441 tumour bearing mice; settings: for RMC-7977 (nmol/kg) Tumor: single dose, individual animals
Experimental: Tumour tissue samples were homogenized with a 10× volume of methanol/15 mM PBS (1:2, v:v). Sample preparation and analysis on a Sciex 6500+ triple quadrupole mass spectrometer equipped with an ACQUITY UPLC system were performed as previously described[12].
All datapoints shown, n = 3 per dose and timepoint.
Female BALB/c nude mice, NOD SCID and NSG mice 6-8 weeks old from Beijing Vital River/VR Laboratory Animal Co., LTD, Beijing AniKeeper Biotech Co., Ltd., Shanghai Sino-British SIPPR/BK Laboratory Animal Co., LTD and The Jackson Laboratory were used. Animals were housed in polycarbonate cages, in an environmentally monitored, well ventilated room maintained at a constant temperature of 20-26°C and relative humidity of 40-80%. Fluorescent lighting provided illumination approximately 12 hours per day. Each mouse was inoculated at the right flank with tumor cells (2x10^6-1x10^7) in 100-200 µL of media/PBS supplemented with Matrigel (1:1). Treatments were started when the average tumor size reached 100-250 mm^3. […] Mice on studies were weighed and tumor measurements collected twice weekly. […] Body weights were collected twice a week during the study. For single-dose pharmacokinetic/pharmacodynamics (PK/PD) study, mice were randomized into treatment groups when mean tumor volume reached 400-600 mm^3.

KRAS WT = KRAS WT (Homo sapiens, UniProt P01116+P62937); assay: RAS binding affinity of compound-bound CYPA (Kd2), SPR; parameters: made in house; host or cells: BL21(DE3) Escherichia coli; settings: steady state SPR, (95% CI)
[8] = test system: adagrasib-resistant NCI-H358 cells with secondary NRAS^Q61K mutation; assay: Proliferation (CTG) and western blots of parental and adagrasib-resistant NCI-H358 (NRAS^Q61K); format: cell-based, human; settings: NCI-H358 clone with concurrent NRAS^Q61K mutation
[9] = female, BALB/c nude, mouse, tumour, po, 10 mg/kg
[10] = female, BALB/c nude, mouse, whole blood, po, 10 mg/kg

CCn1c(-c2cc(N3CCN(C4CC4)CC3)cnc2[C@H](C)OC)c2c3cc(ccc31)-c1csc(n1)C[C@H](NC(=O)[C@H]1[C@@H]3COC[C@@H]31)C(=O)N1CCC[C@H](N1)C(=O)OCC(C)(C)C2 [RMC-7977]
EC50 (Capan-1 cells [1]): 2.2 nM | Kd (NRAS^Q61R): 239 nM | Kd (KRAS^G12V): 85 nM | EC50 (Capan-1 cells [2]): 0.421 nM | EC50 (KRAS^G13D [3]): 4.99 nM | Cell proliferation (CellTiter-Glo) ([4]; ASPC1, RMC-7977 1.52 nM): 68.8907 and 77.7752 | Cell proliferation (CellTiter-Glo) ([4]; ASPC1, RMC-7977 4.57 nM): 54.6049 and 56.084 | Cell proliferation (CellTiter-Glo) ([4]; ASPC1, RMC-7977 13.72 nM): 31.4521 and 36.2763 | Cell proliferation (CellTiter-Glo) ([4]; ASPC1, RMC-7977 41.15 nM): 19.3277 and 20.3014 | Cell proliferation (CellTiter-Glo) ([4]; ASPC1, RMC-7977 123.46 nM): 12.8203 and 13.4559 | Cell proliferation (CellTiter-Glo) ([4]; ASPC1, RMC-7977 370.39 nM): 9.7785 and 11.4734 | Cell proliferation (CellTiter-Glo) ([4]; ASPC1, RMC-7977 1111.14 nM): 8.521 and 9.0438 | Cell proliferation (CellTiter-Glo) ([4]; ASPC1, RMC-7977 3333.41 nM): 6.811 and 10.0312 | Cell proliferation (CellTiter-Glo) ([4]; ASPC1, RMC-7977 10000.00 nM): 5.308 and 5.788 | Cell proliferation (CellTiter-Glo) ([4]; CAPAN1, RMC-7977 1.52 nM): 59.9636 and 63.7997 | Cell proliferation (CellTiter-Glo) ([4]; CAPAN1, RMC-7977 4.57 nM): 35.7372 and 42.3141 | Cell proliferation (CellTiter-Glo) ([4]; CAPAN1, RMC-7977 13.72 nM): 18.382 and 18.5053 | Cell proliferation (CellTiter-Glo) ([4]; CAPAN1, RMC-7977 41.15 nM): 11.8827 and 13.681 | Cell proliferation (CellTiter-Glo) ([4]; CAPAN1, RMC-7977 123.46 nM): 8.811 and 11.6796 | Cell proliferation (CellTiter-Glo) ([4]; CAPAN1, RMC-7977 370.39 nM): 5.4975 and 10.0571 | Cell proliferation (CellTiter-Glo) ([4]; CAPAN1, RMC-7977 1111.14 nM): 6.166 and 6.972 | Cell proliferation (CellTiter-Glo) ([4]; CAPAN1, RMC-7977 3333.41 nM): 4.455 and 5.8786 | Concentration-response, normalized signal (replicate wells) ([4]; HCT116, RMC-7977 4.00 nM): 82.5863 and 97.7262 and 86.8037 and 89.4627 and 85.957 and 97.0725 and 88.0274 and 98.1156 and 87.4457 and 99.4211 and 79.8906 and 84.8325 | Concentration-response, normalized signal (replicate wells) ([4]; HCT116, RMC-7977 36.01 nM): 18.5896 and 19.6721 and 20.3034 and 20.9024 and 39.3935 and 41.5603 and 31.7309 and 32.7207 and 34.8483 and 44.0944 and 29.6731 and 29.9889 | Concentration-response, normalized signal (replicate wells) ([4]; HCT116, RMC-7977 324.09 nM): 2.22 and 2.64 and 1.664 and 2.991 and 5.879 and 6.569 and 5.425 and 6.586 and 5.001 and 5.957 and 2.283 and 3.5458 | Concentration-response, normalized signal (replicate wells) ([4]; HCT116, RMC-7977 972.25 nM): 1.618 and 2.167 | Concentration-response, normalized signal (replicate wells) ([4]; cell line heading above the shown rows, RMC-7977 10000.00 nM): 4.998 and 6.7184 | pERK suppression over time [5]: sustained pERK suppression | EC50 (KRAS^G13D [6]): 15.4 nM | Kd (NRAS WT): 101 nM | AUC(0-t) [7, 9]: 24300 ng·h/mL | half-life [7, 9]: 18.3 h | AUC(0-t) [7, 10]: 7240 ng·h/mL | Cmax [7, 10]: 1110 ng/mL | half-life [7, 10]: 2.78 h | RMC-7977 (nmol/kg) Tumor ([7]; 8h, 1 mg/kg): 244 nmol/kg and 196 nmol/kg and 235 nmol/kg | RMC-7977 (nmol/kg) Tumor ([7]; 8h, 5 mg/kg): 458 nmol/kg and 496 nmol/kg and 1040 nmol/kg | RMC-7977 (nmol/kg) Tumor ([7]; 8h, 10 mg/kg): 998 nmol/kg and 832 nmol/kg and 1249 nmol/kg and 1135 nmol/kg and 713 nmol/kg and 1191 nmol/kg | RMC-7977 (nmol/kg) Tumor ([7]; 8h, 25 mg/kg): 2289 nmol/kg and 4057 nmol/kg and 2196 nmol/kg | RMC-7977 (nmol/kg) Tumor ([7]; 24h, 1 mg/kg): 38.1 nmol/kg and 54.8 nmol/kg and 48.3 nmol/kg | RMC-7977 (nmol/kg) Tumor ([7]; 24h, 5 mg/kg): 201 nmol/kg and 183 nmol/kg and 226 nmol/kg | RMC-7977 (nmol/kg) Tumor ([7]; 24h, 10 mg/kg): 310 nmol/kg and 343 nmol/kg and 320 nmol/kg and 402 nmol/kg and 316 nmol/kg and 606 nmol/kg | RMC-7977 (nmol/kg) Tumor ([7]; 24h, 25 mg/kg): 1047 nmol/kg and 906 nmol/kg and 996 nmol/kg | RMC-7977 (nmol/kg) Tumor ([7]; 48h, 1 mg/kg): 27 nmol/kg and 31.7 nmol/kg | RMC-7977 (nmol/kg) Tumor ([7]; 48h, 5 mg/kg): 68.9 nmol/kg and 51.9 nmol/kg and 52.5 nmol/kg | RMC-7977 (nmol/kg) Tumor ([7]; 48h, 10 mg/kg): 177 nmol/kg and 192 nmol/kg and 214 nmol/kg and 205 nmol/kg and 233 nmol/kg and 65.7 nmol/kg | RMC-7977 (nmol/kg) Tumor ([7]; 48h, 25 mg/kg): 433 nmol/kg and 394 nmol/kg and 691 nmol/kg | RMC-7977 (nmol/kg) Tumor ([7]; 72h, 5 mg/kg): 52.4 nmol/kg and 38.4 nmol/kg | RMC-7977 (nmol/kg) Tumor ([7]; 72h, 10 mg/kg): 155 nmol/kg and 86.2 nmol/kg and 63.8 nmol/kg and 71.8 nmol/kg and 72 nmol/kg | RMC-7977 (nmol/kg) Tumor ([7]; 72h, 25 mg/kg): 253 nmol/kg and 209 nmol/kg and 230 nmol/kg | overall exposure in subcutaneous tumours compared with blood ([7]; subcutaneous xenograft tumour models): approximately threefold increase | Kd (KRAS WT): 116 nM | RAS signalling and growth of adagrasib-resistant clone [8]: inhibited RAS signalling and growth
